Measurements: ChEMBL document CHEMBL3044766, “Synthesis, antitubercular and antifungal activities of heteroaryl-substituted oxiranes derived from BaylisHillman adducts” (2012)
Active and inactive are the calls of the source. The calls are words filed in the database; no cut-off is given here.

How the values were obtained:
[1] = tested on: Mycobacterium tuberculosis; test: Growth inhibition of Mycobacterium tuberculosis H37Rv at 10 ug/ml after 4 weeks by Lowenstein-Jensen method; format: functional, organism-based
[2] = tested on: Mycobacterium tuberculosis; test: Growth inhibition of Mycobacterium tuberculosis H37Rv at 1 ug/ml after 4 weeks by Lowenstein-Jensen method; format: functional, organism-based
[3] = tested on: Candida albicans; test: Antifungal activity against Candida albicans at 100 ug/ml after 24 hr by disk diffusion method; format: functional; settings: read-out: DIZ
[4] = tested on: Mycobacterium tuberculosis; test: Growth inhibition of Mycobacterium tuberculosis H37Rv at 100 ug/ml after 4 weeks by Lowenstein-Jensen method; format: functional, organism-based
[5] = tested on: Aspergillus fumigatus; test: Antifungal activity against Aspergillus fumigatus at 100 ug/ml after 24 hr by disc diffusion method; format: functional; settings: read-out: DIZ

| SMILES | growth inhibition (GI) [1] | growth inhibition (GI) [2] | zone of inhibition at 100 µg/mL [3] [mm] | growth inhibition (GI) [4] | zone of inhibition at 100 µg/mL [5] [mm] |
| --- | --- | --- | --- | --- | --- |
| CCOC(=O)C1(C(O)c2cccs2)CO1 (stereo not given) | Active | Active | 9 | Active | 10 |
| COC(=O)C1(C(O)c2ccco2)CO1 (stereo not given) | Active | Active | 7 | Active | 8 |
| Clc1ccccc1C(c1ccccc1)(c1ccccc1)n1ccnc1 [CLOTRIMAZOLE] |  |  | 20 |  | 21 |
| COC(=O)C1(C(O)c2ccc[nH]2)CO1 (stereo not given) | Active | Active | 9 | Active | 12 |
| COC(=O)C1(C(O)c2cccs2)CO1 (stereo not given) | Active | Active | 12 | Active | 12 |
| CCOC(=O)C1(C(O)c2ccc[nH]2)CO1 (stereo not given) | Active | Active | 10 | Active | 10 |
| CCOC(=O)C1(C(O)c2ccco2)CO1 (stereo not given) | Active | Active | 8 | Active | 9 |
| NC(=O)c1cnccn1 | Active | Active |  | Active |  |
